Reference: the supplement of paper PMC11061612

Key:
Carboplatin = compound: C1CC(C1)(C(=O)[O-])C(=O)[O-].N.N.[Pt+2] [Carboplatin]; conditions: max 10 µM
In short: (§1)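 Cancer cell lines were plated in 1536-well plates in 7.5 μl of DMEM/F12 or RPMI with 10% FBS and kept 24 hours at 37°C and 5% CO2 before 72 hours of dosing, with final DMSO typically 0.2%. CellTiter-Glo 2.0 luminescence measured viability, scaled between blank-well and DMSO-well means. Dose responses were fitted to a two-parameter logistic curve with a non-linear mixed effects model. This fit gives the single-agent IC50.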

AZD5363 = compound: C1CN(CCC1(C(=O)N[C@@H](CCO)C2=CC=C(C=C2)Cl)N)C3=NC=NC4=C3C=CN4 [AZD5363]; conditions: max 10 µM
In short: as §1

AZD1775 = compound: C=CCn1c(=O)c2cnc(Nc3ccc(N4CCN(C)CC4)cc3)nc2n1-c1cccc(C(C)(C)O)n1 [AZD1775]; conditions: max 3 µM
In short: as §1

Trametinib = compound: CC(=O)Nc1cccc(-n2c(=O)n(C3CC3)c(=O)c3c(Nc4ccc(I)cc4F)n(C)c(=O)c(C)c32)c1 [Trametinib]; conditions: max 1 µM
In short: as §1

Paclitaxel = compound: CC(=O)O[C@H]1C(=O)[C@@]2(C)[C@H]([C@H](OC(=O)c3ccccc3)[C@]3(O)C[C@H](OC(=O)[C@H](O)[C@@H](NC(=O)c4ccccc4)c4ccccc4)C(C)=C1C3(C)C)[C@]1(OC(C)=O)CO[C@@H]1C[C@@H]2O [Paclitaxel]; conditions: max 3 µM
In short: as §1

Palbociclib = compound: CC(=O)c1c(C)c2cnc(Nc3ccc(N4CCNCC4)cn3)nc2n(C2CCCC2)c1=O [Palbociclib]; conditions: max 10 µM
In short: as §1

AZD1390 = compound: CC(C)n1c(=O)n(C)c2cnc3cc(F)c(-c4ccc(OCCCN5CCCCC5)nc4)cc3c21 [AZD1390]; conditions: max 0.3 µM
In short: as §1

Venetoclax = compound: CC1(C)CCC(CN2CCN(c3ccc(C(=O)NS(=O)(=O)c4ccc(NCC5CCOCC5)c([N+](=O)[O-])c4)c(Oc4cnc5[nH]ccc5c4)c3)CC2)=C(c2ccc(Cl)cc2)C1 [Venetoclax]; conditions: max 1 µM
In short: as §1

Dasatinib = compound: CC1=C(C(=CC=C1)Cl)NC(=O)C2=CN=C(S2)NC3=CC(=NC(=N3)C)N4CCN(CC4)CCO [Dasatinib]; conditions: max 2 µM
In short: as §1

SG3199 = compound: CC1=CN2[C@@H](C1)C=NC3=CC(=C(C=C3C2=O)OC)OCCCCCOC4=C(C=C5C(=C4)N=C[C@@H]6CC(=CN6C5=O)C)OC [SG3199]; conditions: max 0.001 µM
In short: as §1

AZD2811 = compound: CCN(CCO)CCCOc1ccc2c(Nc3cc(CC(=O)Nc4cccc(F)c4)[nH]n3)ncnc2c1 [AZD2811]; conditions: max 1 µM
In short: as §1

SN-38 = compound: CCc1c2c(nc3ccc(O)cc13)-c1cc3c(c(=O)n1C2)COC(=O)[C@]3(O)CC [SN-38]; conditions: max 0.3 µM
In short: as §1

AZD0156 = compound: CN(C)CCCOc1ccc(-c2ccc3ncc4c(c3c2)n(C2CCOCC2)c(=O)n4C)cn1 [AZD0156]; conditions: max 3 µM
In short: as §1

AZD4320 = compound: CN(CC[C@H](CSC1=CC=CC=C1)NC2=C(C=C(C=C2)S(=O)(=O)NC(=O)C3=CC=C(C=C3)N4CCC(CC4)[C@H](C5=CC=CC=C5C6=CC=C(C=C6)Cl)O)S(=O)(=O)C(F)(F)F)CCO [AZD4320]; conditions: max 1 µM
In short: as §1

Alisertib = compound: COc1cc(Nc2ncc3c(n2)-c2ccc(Cl)cc2C(c2c(F)cccc2OC)=NC3)ccc1C(=O)O [Alisertib]; conditions: max 10 µM
In short: as §1

Etoposide = compound: COc1cc([C@@H]2c3cc4c(cc3[C@@H](O[C@@H]3O[C@@H]5CO[C@@H](C)O[C@H]5[C@H](O)[C@H]3O)[C@H]3COC(=O)[C@H]23)OCO4)cc(OC)c1O [Etoposide]; conditions: max 10 µM
In short: as §1

Gefitinib = compound: COc1cc2ncnc(Nc3ccc(F)c(Cl)c3)c2cc1OCCCN1CCOCC1 [Gefitinib]; conditions: max 10 µM
In short: as §1

Prexasertib = compound: COc1cccc(OCCCN)c1-c1cc(Nc2cnc(C#N)cn2)n[nH]1 [Prexasertib]; conditions: max 1 µM
In short: as §1

Doxorubicin = compound: COc1cccc2c1C(=O)c1c(O)c3c(c(O)c1C2=O)C[C@@](O)(C(=O)CO)C[C@@H]3O[C@H]1C[C@H](N)[C@H](O)[C@H](C)O1 [Doxorubicin]; conditions: max 1 µM
In short: as §1

AZD5153 = compound: COc1nnc2ccc(N3CCC(c4ccc(OCCN5CCN(C)C(=O)[C@H]5C)cc4)CC3)nn12 [AZD5153]; conditions: max 1 µM
In short: as §1

Lapatinib = compound: CS(=O)(=O)CCNCc1ccc(-c2ccc3ncnc(Nc4ccc(OCc5cccc(F)c5)c(Cl)c4)c3c2)o1 [Lapatinib]; conditions: max 10 µM
In short: as §1

AZD8186 = compound: C[C@@H](Nc1cc(F)cc(F)c1)c1cc(C(=O)N(C)C)cc2c(=O)cc(N3CCOCC3)oc12 [AZD8186]; conditions: max 10 µM
In short: as §1

Crizotinib = compound: C[C@@H](Oc1cc(-c2cnn(C3CCNCC3)c2)cnc1N)c1c(Cl)ccc(F)c1Cl [Crizotinib]; conditions: max 10 µM
In short: as §1

Savolitinib = compound: C[C@@H](c1ccc2nccn2c1)n1nnc2ncc(-c3cnn(C)c3)nc21 [Savolitinib]; conditions: max 1 µM
In short: as §1

AZD6738 = compound: C[C@@H]1COCCN1C2=NC(=NC(=C2)C3(CC3)[S@](=N)(=O)C)C4=C5C=CNC5=NC=C4 [AZD6738]; conditions: max 10 µM
In short: as §1

AZD5991 = compound: Cc1c2c(nn1C)CSCc1cc(n(C)n1)CSc1cc(c3ccccc3c1)OCCCc1c(C(=O)O)n(C)c3c-2c(Cl)ccc13 [AZD5991]; conditions: max 1 µM
In short: as §1

AZD7648 = compound: Cc1cc2ncnn2cc1Nc1ncc2c(n1)n(C1CCOCC1)c(=O)n2C [AZD7648]; conditions: max 10 µM
In short: as §1

Taselisib = compound: Cc1nc(-c2cn3c(n2)-c2ccc(-c4cnn(C(C)(C)C(N)=O)c4)cc2OCC3)n(C(C)C)n1 [Taselisib]; conditions: max 10 µM
In short: as §1

Selumetinib = compound: Cn1cnc2c(F)c(Nc3ccc(Br)cc3Cl)c(C(=O)NOCCO)cc21 [Selumetinib]; conditions: max 10 µM
In short: as §1

SRA737 = compound: N#Cc1cnc(Nc2cc(NC[C@H]3CNCCO3)c(C(F)(F)F)cn2)cn1 [SRA737]; conditions: max 10 µM
In short: as §1

MK-2206 = compound: NC1(c2ccc(-c3nc4ccn5c(=O)[nH]nc5c4cc3-c3ccccc3)cc2)CCC1 [MK-2206]; conditions: max 10 µM
In short: as §1

Gemcitabine = compound: Nc1ccn([C@@H]2O[C@H](CO)[C@@H](O)C2(F)F)c(=O)n1 [Gemcitabine]; conditions: max 0.3 µM
In short: as §1

[1] = compound: O=C(Nc1ccc2[nH]nc(-c3ccncc3)c2c1)[C@@H]1CCN(CC(=O)N2CCN(c3ccc(-c4ncccn4)cc3)CC2)C1; conditions: max 5 µM
In short: as §1

Olaparib = compound: O=C(c1cc(Cc2n[nH]c(=O)c3ccccc23)ccc1F)N1CCN(C(=O)C2CC2)CC1 [Olaparib]; conditions: max 10 µM
In short: as §1

5-Fluorouracil = compound: O=c1[nH]cc(F)c(=O)[nH]1 [5-Fluorouracil]; conditions: max 20 µM
In short: as §1

Cell Line	IC50, cell viability 72 h (Carboplatin) [µM]	IC50, cell viability 72 h (AZD5363) [µM]	IC50, cell viability 72 h (AZD1775) [nM]	IC50, cell viability 72 h (Trametinib) [nM]	IC50, cell viability 72 h (Paclitaxel) [nM]	IC50, cell viability 72 h (Palbociclib) [µM]	IC50, cell viability 72 h (AZD1390) [nM]	IC50, cell viability 72 h (Venetoclax) [nM]	IC50, cell viability 72 h (Dasatinib) [nM]	IC50, cell viability 72 h (SG3199) [nM]	IC50, cell viability 72 h (AZD2811) [nM]	IC50, cell viability 72 h (SN-38) [nM]	IC50, cell viability 72 h (AZD0156) [nM]	IC50, cell viability 72 h (AZD4320) [nM]	IC50, cell viability 72 h (Alisertib) [µM]	IC50, cell viability 72 h (Etoposide) [µM]	IC50, cell viability 72 h (Gefitinib) [µM]	IC50, cell viability 72 h (Prexasertib) [nM]	IC50, cell viability 72 h (Doxorubicin) [nM]	IC50, cell viability 72 h (AZD5153) [nM]	IC50, cell viability 72 h (Lapatinib) [µM]	IC50, cell viability 72 h (AZD8186) [µM]	IC50, cell viability 72 h (Crizotinib) [µM]	IC50, cell viability 72 h (Savolitinib) [nM]	IC50, cell viability 72 h (AZD6738) [µM]	IC50, cell viability 72 h (AZD5991) [nM]	IC50, cell viability 72 h (AZD7648) [µM]	IC50, cell viability 72 h (Taselisib) [µM]	IC50, cell viability 72 h (Selumetinib) [µM]	IC50, cell viability 72 h (SRA737) [nM]	IC50, cell viability 72 h (MK-2206) [µM]	IC50, cell viability 72 h (Gemcitabine) [nM]	IC50, cell viability 72 h [1] [µM]	IC50, cell viability 72 h (Olaparib) [µM]	IC50, cell viability 72 h (5-Fluorouracil) [µM]
NCI-H358 (Lung Adenocarcinoma)	> 10	> 10	> 3000	147	28.1	> 10	> 300	> 1000	> 2000	> 1	> 1000	> 300	> 3000	> 1000	> 10	> 10	> 10	46.6	> 1000	> 1000	> 10	> 10	> 10	> 1000	> 10	> 1000	> 10	3.47	> 10	> 10000	> 10	> 300	> 5	> 10	> 20
MLMA (Other Blood Carcinomas)	> 10	8.83	144	> 1000	13.7	> 10	> 300	272	548	> 1	> 1000	16.3	> 3000	> 1000	6.31	2.2	> 10	2.19	116	55.5	> 10	2.94	9.93	> 1000	4.31	> 1000	> 10	0.982	> 10	934	1.76	22.8	> 5	> 10	> 20
BT-549 (Breast Carcinoma)	> 10	> 10	2520	> 1000	25.3	> 10	> 300	> 1000	> 2000	> 1	> 1000	171	> 3000	> 1000	> 10	9.22	> 10	592	> 1000	531	> 10	> 10	> 10	> 1000	> 10	> 1000	> 10	> 10	> 10	> 10000	> 10	> 300	> 5	> 10	> 20
ACHN (Kidney Carcinoma)	> 10	> 10	116	> 1000	461	4.94	> 300	> 1000	179	> 1	> 1000	12.7	> 3000	> 1000	9.51	5.5	3.43	10.8	264	623	8.52	> 10	> 10	> 1000	0.97	> 1000	> 10	6.33	> 10	1580	> 10	20.1	> 5	> 10	> 20
SW13 (Other Solid Carcinomas)	> 10	> 10	> 3000	804	6.09	> 10	> 300	> 1000	1250	> 1	> 1000	5.19	> 3000	> 1000	> 10	4.89	> 10	> 1000	394	> 1000	4.46	> 10	> 10	> 1000	> 10	212	> 10	> 10	> 10	> 10000	> 10	27.1	> 5	> 10	> 20
